According to patent US5475012A, “N-cyanoamidine derivatives as anti-influenza agents” (priority 1994, dated 1995):
In brackets after ≈: the same amount, converted by molar mass.

Tests used:
in vitro [1] = conditions: human, a549 cells
FluA/Kaw = assay: microbe, parasite or virus in culture; assay type: cell-based, influenza A virus; conditions: for IC50: Influenza A virus, in Gallus gallus, read-out: Median Inhibiting Concentration (IC50), FluA/Kaw; for activity against A/Kaw (in words): strain specificity
FluA/LA = assay: microbe, parasite or virus in culture; assay type: cell-based, influenza A virus; conditions: for IC50: Influenza A virus, in Gallus gallus, read-out: Median Inhibiting Concentration (IC50), FluA/LA; for activity against A/LA (in words): strain specificity
in vitro [2] = conditions: dog, mdck
in vitro [3] = conditions: human, mrc-5 cells
FluB/Yama = assay: microbe, parasite or virus in culture; assay type: cell-based, influenza B virus; conditions: for IC50: Influenza B virus, read-out: Median Inhibiting Concentration (IC50), FluB/Yama; for activity against B/Yama (in words): strain specificity
in vitro [4] = conditions: african green monkey, vero cells
in vitro [5] = conditions: human, hep-2 cells
FluA/WSN = assay: Anti-influenza A activity, FluA/WSN (cytopathic effect, crystal violet stain, MDCK cells); assay type: cell-based, influenza A virus; conditions: for IC50: Influenza A virus, WSN, Table II, tested in MDCK cells, read-out: Median Inhibiting Concentration (IC50), FluA/WSN; for activity against A/WSN (in words): strain specificity

NC12CC3CC(CC(C3)C1)C2 [Amantadine, reference compound]
MCC (in vitro [1]): > 100 µg/mL
IC50 (FluA/Kaw): 0.5 to 1.6 µg/mL (≈ 3.31 to 10.6 µM)
IC50 (FluA/LA): 0.16 µg/mL (≈ 1.06 µM)
MCC (in vitro [2]): > 100 µg/mL
MCC (in vitro [3]): > 100 µg/mL
IC50 (FluB/Yama): > 16 µg/mL
MCC (in vitro [4]): > 100 µg/mL
MCC (in vitro [5]): > 100 µg/mL
IC50 (FluA/WSN): 16 µg/mL (≈ 106 µM)

CC(Cc1ccccc1)(C(=NC#N)NCCc1ccccc1)c1ccccn1 (stereo not drawn) [Example 1, N'-Cyano-α-methyl-N-(2-phenylethyl)-α-(phenylmethyl)-2-pyridineethanimidamide]
MCC (in vitro [1]): > 50 µg/mL
IC50 (FluA/Kaw): 0.5 to 1.6 µg/mL (≈ 1.36 to 4.34 µM)
activity against A/Kaw (in words) (FluA/Kaw): active
IC50 (FluA/LA): > 16 µg/mL
activity against A/LA (in words) (FluA/LA): inactive
MCC (in vitro [2]): > 50 µg/mL
MCC (in vitro [3]): > 50 µg/mL
IC50 (FluB/Yama): > 16 µg/mL
activity against B/Yama (in words) (FluB/Yama): inactive
MCC (in vitro [4]): > 50 µg/mL
MCC (in vitro [5]): > 50 µg/mL
IC50 (FluA/WSN): 0.16 to 0.5 µg/mL (≈ 0.434 to 1.36 µM)
activity against A/WSN (in words) (FluA/WSN): active

CC(Cc1ccccc1)(C(=NC#N)NCc1ccco1)c1ccccn1 (stereo not drawn) [Example 2, N'-Cyano-N-(2-furanylmethyl)-α-methyl-α-(phenylmethyl)-2-pyridineethanimidamide]
MCC (in vitro [1]): > 50 µg/mL
IC50 (FluA/Kaw): 0.5 to 1.6 µg/mL (≈ 1.45 to 4.65 µM)
activity against A/Kaw (in words) (FluA/Kaw): active
IC50 (FluA/LA): > 16 µg/mL
activity against A/LA (in words) (FluA/LA): inactive
MCC (in vitro [2]): > 50 µg/mL
MCC (in vitro [3]): > 50 µg/mL
IC50 (FluB/Yama): > 16 µg/mL
activity against B/Yama (in words) (FluB/Yama): inactive
MCC (in vitro [4]): > 50 µg/mL
MCC (in vitro [5]): > 50 µg/mL
IC50 (FluA/WSN): 0.16 to 0.5 µg/mL (≈ 0.465 to 1.45 µM)
activity against A/WSN (in words) (FluA/WSN): active

CSC(=NC#N)NCCSCc1cccnc1Nc1ccccc1 [Example 3, N'-cyano-N-[2-[[[2-(phenylamino)-3-pyridinyl]methyl]thio]ethyl]carbamimidothioic acid methyl ester]
MCC (in vitro [1]): > 100 µg/mL
MCC (in vitro [2]): > 100 µg/mL
MCC (in vitro [3]): > 100 µg/mL
MCC (in vitro [4]): > 100 µg/mL
MCC (in vitro [5]): > 100 µg/mL

NC(=O)c1ncn([C@@H]2O[C@H](CO)[C@@H](O)[C@H]2O)n1 [Ribavirin, reference compound]
MCC (in vitro [1]): > 100 µg/mL
IC50 (FluA/Kaw): > 16 µg/mL
IC50 (FluA/LA): > 16 µg/mL
MCC (in vitro [2]): > 100 µg/mL
MCC (in vitro [3]): > 100 µg/mL
IC50 (FluB/Yama): 1.6 to 5 µg/mL (≈ 6.55 to 20.5 µM)
MCC (in vitro [4]): > 100 µg/mL
MCC (in vitro [5]): > 100 µg/mL
IC50 (FluA/WSN): 1.6 to 5 µg/mL (≈ 6.55 to 20.5 µM)
